Results on two compounds are retold here after US7531569B2, “Process for preparing (3-oxo-2,3-dihydro-1H-isoindol-1-yl) acetylguanidine derivatives” (sanofi-aventis Deutschland GmbH, priority 2003, dated 2009).

What is called IC50 is the concentration that inhibits the measured activity by half.

The target of series [1] is T1, human NHE-1 (Homo sapiens, UniProt P19634).
T1 construct: expressed in transfected cells; host or cells: LAP-1 (parental line without endogenous NHE activity), G418 selection
T1 sequence (P19634 whole entry): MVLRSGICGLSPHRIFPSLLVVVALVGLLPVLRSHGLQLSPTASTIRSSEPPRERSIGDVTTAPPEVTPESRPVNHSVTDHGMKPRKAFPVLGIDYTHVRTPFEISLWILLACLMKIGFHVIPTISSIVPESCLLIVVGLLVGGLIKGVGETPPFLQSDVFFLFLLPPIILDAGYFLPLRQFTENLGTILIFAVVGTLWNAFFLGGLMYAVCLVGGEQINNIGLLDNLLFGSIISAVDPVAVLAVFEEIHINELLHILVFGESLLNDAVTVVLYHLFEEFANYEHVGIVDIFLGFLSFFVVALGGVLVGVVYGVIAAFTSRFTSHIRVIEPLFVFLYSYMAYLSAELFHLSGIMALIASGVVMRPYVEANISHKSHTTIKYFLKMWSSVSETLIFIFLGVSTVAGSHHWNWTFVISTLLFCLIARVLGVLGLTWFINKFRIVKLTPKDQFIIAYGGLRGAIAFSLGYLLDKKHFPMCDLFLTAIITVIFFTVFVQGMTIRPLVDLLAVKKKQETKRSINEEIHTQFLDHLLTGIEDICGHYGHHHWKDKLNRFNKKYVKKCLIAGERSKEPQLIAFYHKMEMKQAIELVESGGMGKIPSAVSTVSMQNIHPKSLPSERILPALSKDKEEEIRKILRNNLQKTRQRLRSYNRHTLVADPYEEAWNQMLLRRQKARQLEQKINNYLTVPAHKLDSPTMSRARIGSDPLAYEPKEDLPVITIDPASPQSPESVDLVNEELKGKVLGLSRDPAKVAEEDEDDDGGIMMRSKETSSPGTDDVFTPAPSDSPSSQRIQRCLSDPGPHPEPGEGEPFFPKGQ
Description: FLIPR assay of pHi recovery in transfected LAP-1 cell lines expressing human NHE-1. Format: cell-based. The settings on record: transfected cells expressing human NHE-1, read-out: NHE1 inhibition IC50. As for the experimental part: The inhibitory concentration IC50 for NHE-1 inhibition was determined as follows:
The NHE-1 inhibition IC50 was determined in an FLIPR assay by measurement of the recovery in pHi in transfected cell lines which express human NHE-1.
The assay was carried out in an FLIPR (fluorescent imaging plate reader) with black-walled 96-well microtiter plates having clear bases.
The growth medium for the transfected cells (Iscove+10% fetal calf serum) additionally contained G418 as a selection antibiotic in order to ensure the presence of the transfected sequences.
The actual assay started with the removal of the growth medium and addition of 100 μl of loading buffer per well (5 μM BCECF-AM [2′,7′-bis(carboxyethyl)-5- (and -6-)carboxyfluorescein, acetoxymethyl ester] in 20 mM NH4Cl, 115 mM choline chloride, 1 mM MgCl2, 1 mM CaCl2, 5 mM KCl, 20 mM HEPES, 5 mM glucose; pH 7.4 [adjusted with KOH]). The cells were then incubated at 37° C. for 20 minutes. This incubation led to loading of the cells with the fluorescent dye whose fluorescence intensity depends on pHi, and with NH4Cl which makes the cells slightly alkaline.
The nonfluorescent dye precursor BCECF-AM is, as the ester, membrane-permeable. Inside the cell, esterases release the actual BCECF dye which is membrane-impermeable. […]

Series [2] can be described thus: Stated solid-state and physicochemical properties of the salt (no method described). The following applies: qualitative statement, no conditions given.

For the compound `NC(N)=NC(=O)C[C@H]1c2cc(C(F)(F)F)ccc2C(=O)N1CC(F)(F)F` [(S)-N-{2-[3-Oxo-2-(2,2,2-trifluoroethyl)-6-trifluoromethyl-2,3-dihydro-1H-isoindol-1-yl]-acetyl}guanidine], the IC50 in series [1] was 0.3 nM.
Consider `NC(N)=NC(=O)C[C@H]1c2cc(C(F)(F)F)ccc2C(=O)N1CC(F)(F)F.O=C(O)/C=C/C(=O)O` [(S)-N-{2-[3-Oxo-2-(2,2,2-trifluoroethyl)-6-trifluoromethyl-2,3-dihydro-1H-isoindol-1-yl]-acetyl}guanidine hydrogenfumarate hydrate], for which, in series [2], the hygroscopicity entry is listed as “particularly low hygroscopicity”, the solubility entry is on record as “good solubility” and the tendency to racemization entry is “low tendency to racemization”.
